The text below walks through data of ChEMBL document CHEMBL6103622 (J Med Chem, 2025).

Series [1] can be described thus: Oral bioavailability in Sprague-Dawley rat at 10 mg/kg. The class given is ADME, organism-based. The conditions noted are these: in vivo.
The subject of series [2] is Colorectal cancer organoid. Description: Antitumor activity against patient derived CRC organoids cocultured with IL-4/13 stimulated M2 macrophages assessed as lytic death state at 10 to 100 nM incubated for 72 hrs. The class given is functional, tissue-based. The settings on record: Homo sapiens, Colorectum, dose 10-100 nM.
The subject of another series is BMDM. Description: Induction of repolarization of M2 like macrophage into M1 phenotype in female C57BL/6 mouse BMDM cells assessed as increase in Il1 mRNA expression at 10 to 100 nM stimulated with mouse IL4/IL-13 for 24 hrs followed by compound addition and measured after 24 hrs by qPCR analysis. It counts as functional, cell-based. The conditions noted are these: dose 10-100 nM.

A short description of series [3]: AUC (0 to infinity) in Sprague-Dawley rat at 1 mg/kg, iv. The class given is ADME, organism-based. The settings on record: in vivo.
A further series concerns MC-38. Nature of the series: Inhibition of cell viability in mouse MC38 cells cocultured with condition medium of M2 macrophages at 10 to 100 nM by MTT assay. It counts as functional, cell-based. The conditions noted are these: dose 10-100 nM.

Activity calls are given as the source filed them. The calls are words filed in the database; no cut-off is given here.

The compound `Cc1nc(NC(=O)N[C@@H]2CCCC[C@H]2O)ccc1Oc1c[nH]c2ncc(Cl)cc12` returned a bioavailability in series [1] of 79.2%. The result (in series [2]; in the series with BMDM) was Active. The compound further registered an AUC(0-inf) in series [3] of 527 ng·h/mL. The inhibition result in the series with MC-38 is “Active”.
